Measured values: patent publication US11478467B2 (priority 2017, dated 2022)

Assays:
[1] = test system: immobility induced by tail suspension; experiment: Tail suspension test in mice; format: in vivo, mouse; settings: ritanserin with effective dose of memantine 10 mg/kg
Description: Tail suspension is one of the classical tests used to study antidepressant drugs and was also applied to evaluate antidepressant-like effects of NMDA receptor channel blockers (Kos T et al., Effect of 5-HT3 receptor antagonist MDL 72222 on behaviors induced by ketamine in rats and mice. European Neuropsychopharmacology (2006) 16:297-310). Mice were transferred from the housing room to the testing area in their home cages and allowed to adapt to the new environment for at least 1 h before drug treatment. Immobility was induced by tail suspension whereby mice were attached individually on a paper adhesive tape, 65 cm above the table top. The tape was placed approximately 1 cm from the tip of the tail. Animals were suspended for 6 min and the duration of immobility was recorded. Mice were considered immobile only when they were completely motionless. […]

[2] = rat, in vivo, cited from earlier work
CYP2D6 [3] = biological target: T1, CYP2D6 (Homo sapiens (Human), UniProt P10635); settings: microsomes
Description: Dextromethorphan O-demethylase activity is determined in human liver microsomes. […] The incubation mixtures contain pooled human liver microsomes, dextromethorphan, and a NADPH-generating system. After incubation and centrifugation, the supernatant is diluted up to 100-fold with acetonitrile and then injected into the LC-MS/MS system. All incubations are performed in triplicate, and mean values are used for analysis. The IC50 values (concentration causing a half-maximal inhibition of control specific binding) and Hill coefficients (nH) are determined using methods such as non-linear regression analysis of the competition curves generated with mean replicate values using Hill equation curve fitting.

2D6 = 2D6 (Homo sapiens (Human), UniProt P10635); settings: in vivo; cited from earlier work
5-HT2A receptors [4] = biological target: T2, 5-HT2A receptors (Homo sapiens (Human), UniProt P28223); settings: compared with ritanserin; cited from earlier work
5-HT2A receptors [5] = biological target: T2, 5-HT2A receptors; experiment: 5-HT2A receptor antagonist radioligand binding ([3H]ketanserin)
Description: HEK-293 cells expressing human recombinant 5HT2A receptor were used in the antagonist radioligand binding studies. […] The inhibition constants (Ki) were calculated using the Cheng Prusoff equation. Both sarpogrelate enantiomers were potent inhibitors of [3H]ketanserin binding (Table 1). M1 enantiomers also potently bind to 5HT2A receptors with the Ki values that are approximately one order of magnitude higher than those of sarpogrelate enantiomers (Table 1). There are no meaningful differences between enantiomers in terms of 5-HT2A receptor binding for sarpogrelate or its main metabolite.
5HT2a ASSAY: Evaluation of the affinity of compounds for the human 5-HT2A receptor in transfected HEK-293 cells determined in a radioligand binding assay. Cell membrane homogenates (30-50 μg protein) were incubated 15 min at 37° C. with 0.5 nM [3H]ketanserin in the absence or presence of the test compound in a buffer containing 50 mM Tris-HCl (pH 7.4). Nonspecific binding was determined in the presence of 1 μM ketanserin. Following incubation, the samples were filtered rapidly under vacuum through glass fiber filters presoaked with 0.3% PEI and rinsed several times with ice-cold 50 mM Tris-HCl using a 96-sample cell harvester. The filters were dried then counted for radioactivity in a scintillation counter using a scintillation cocktail (WO2005013952A1, EP1500391A1[ab1], incorporated in its entirety by reference).

CYP2D6 [6] = biological target: T1, CYP2D6; settings: cited from earlier work
DOI-induced head shakes = DOI-induced head shakes in rats; format: in vivo, rat; settings: 0.3, 1 and 3 mg/kg 30 min prior to DOI 3 mg/kg; Sprague-Dawley rats
[7] = Blood glucose levels and oral glucose tolerance in rats; format: in vivo, rat; settings: dextromethorphan administered in combination with sarpogrelate
Description: Test substances were administered to male Wistar (Han) rats (180-280 g at the beginning of the experiments; Janvier Labs) housed in groups under free access to food and water. After overnight food deprivation, the tip of the tail was cut, each rat was weighed, housed individually and left without stress in a quiet room. Approximately 1 hour later, baseline blood glucose was measured from a drop of blood collected from the tail tip, using a commercially available glucose-meter (OneTouch®, Lifescan) and then rats received intraperitoneal injection of sarpogrelate and/or dextromethorphan and 30 min later blood glucose was measured again and rats immediately challenged with glucose at 2 g/kg by oral gavage. Then, blood glucose was measured at 6 time-points until 180 minutes post-glucose challenge.

[8] = test system: hyperactivity in rats after olfactory bulbectomy; experiment: Motor hyperactivity induced by olfactory bulbectomy in rats; format: in vivo, rat
Description: In a dedicated set of studies, adult male Sprague-Dawley rats (Charles River, Germany) were subjected to bilateral olfactory bulbectomy performed under ketamine/xylasine anesthesia. The animals were allowed to recover for 14 days following surgery while being handled daily to eliminate any aggressiveness that would otherwise arise. Sham-operated animals were treated in the same way but the olfactory bulbs were left intact. Drugs administration and locomotor activity testing were performed 4 times for each rat with 72 hours break between consecutive test sessions. Prior to each test session, animals were first treated with dextromethorphan (0, 15, 30 or 60 mg/kg. per os) followed 15 min later by sarpogrelate (1, 3 and 10 mg/kg, intraperitoneal) and another 15 min later were placed into Opto-Varimex cages for locomotor activity recording over 30 min. Hyperactivity in rats after olfactory bulbectomy is observed mostly during the early portion of the test sessions. […] Post hoc pairwise comparisons (Sidak's multiple comparisons test) confirmed that significant differences between bulbectomized and sham-operated were observed only in rats that were pretreated prior to the test with vehicle instead of sarpogrelate.

CYP2D6 [9] = biological target: T1, CYP2D6; experiment: Dextromethorphan O-demethylase activity in human liver microsomes; format: biochemical
Description: Dextromethorphan O-demethylase activity was determined in human liver microsomes. […] The incubation mixtures contained pooled human liver microsomes (final concentrations: 0.25 mg/ml), dextromethorphan, and a NADPH-generating system (1.3 mM NADP+, 3.3 mM glucose 6-phosphate, 3.3 mM MgCl2, and 0.4 U/ml glucose-6-phosphate dehydrogenase). […] All incubations were performed in triplicate, and mean values were used for analysis. […] Both sarpogrelate enantiomers inhibited CYP2D6-mediated dextromethorphan O-demethylation (Table 4).

[10] = test system: PCP-induced hyperactivity; experiment: Phencyclidine-induced hyperactivity in rats (sarpogrelate and dextromethorphan); format: in vivo, rat
[11] = Pharmacokinetic study of sarpogrelate hydrochloride i.v. in rats; format: in vivo, rat; settings: rat, in vivo; 2 mg/kg intravenous bolus, male Wistar rats, plasma; read-out: Apparent terminal elimination half-life (converted)
Description: Pharmacokinetic study was performed in male Wistar rats equipped with the jugular vein cannulas. Sarpogrelate hydrochloride was formulated in Pharmasolv: PBS buffer (5:95) mixture and administered at the dose of 2 mg/kg intravenously. Blood samples were collected from the jugular vein using heparin as anticoagulant at the scheduled time-points: 5 min, 15 min, 30 min, 1 h, 1.5 h, 2 h, 4 h, and 6 h. An LC-MS/MS bioanalytical method was used for the simultaneous quantification of sarpogrelate and M1 in plasma samples. […] Formation of M1 metabolite of sarpogrelate was rapid as the highest M1 concentrations were measured at the first sampling time points.

T1 sequence (P10635 whole entry): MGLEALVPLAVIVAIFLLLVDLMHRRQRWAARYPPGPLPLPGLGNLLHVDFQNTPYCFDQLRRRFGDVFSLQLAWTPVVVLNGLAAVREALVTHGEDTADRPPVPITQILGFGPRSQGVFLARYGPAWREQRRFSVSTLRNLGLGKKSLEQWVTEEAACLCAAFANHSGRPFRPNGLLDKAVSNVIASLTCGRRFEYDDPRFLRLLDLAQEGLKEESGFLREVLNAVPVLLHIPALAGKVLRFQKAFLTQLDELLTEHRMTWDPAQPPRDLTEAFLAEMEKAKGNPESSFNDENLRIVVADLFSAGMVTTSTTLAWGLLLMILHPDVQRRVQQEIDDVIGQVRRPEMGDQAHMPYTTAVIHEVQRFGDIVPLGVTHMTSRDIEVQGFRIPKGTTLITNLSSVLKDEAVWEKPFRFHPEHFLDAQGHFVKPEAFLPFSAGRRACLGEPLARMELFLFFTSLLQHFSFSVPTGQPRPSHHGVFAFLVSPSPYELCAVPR
T2 sequence (P28223 whole entry): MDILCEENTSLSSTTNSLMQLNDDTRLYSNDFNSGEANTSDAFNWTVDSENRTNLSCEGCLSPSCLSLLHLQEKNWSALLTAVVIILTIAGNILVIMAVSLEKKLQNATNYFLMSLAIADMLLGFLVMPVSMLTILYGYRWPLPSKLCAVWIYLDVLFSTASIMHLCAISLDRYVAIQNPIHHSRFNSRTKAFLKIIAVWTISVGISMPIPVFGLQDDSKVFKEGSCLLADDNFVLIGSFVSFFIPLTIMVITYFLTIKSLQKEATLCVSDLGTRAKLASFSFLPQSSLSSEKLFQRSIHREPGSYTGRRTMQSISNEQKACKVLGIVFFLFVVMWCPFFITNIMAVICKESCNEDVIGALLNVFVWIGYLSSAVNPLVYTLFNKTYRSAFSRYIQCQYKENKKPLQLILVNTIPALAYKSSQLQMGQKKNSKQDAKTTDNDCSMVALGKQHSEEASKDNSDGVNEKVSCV
Sequence of 2D6 (P10635 whole entry): as the sequence (P10635 whole entry) above

With Cc1nc2sccn2c(=O)c1CCN1CCC(=C(c2ccc(F)cc2)c2ccc(F)cc2)CC1 [ritanserin] the “antidepressant-like effects of memantine (immobility time)” value [1] was “reverse antidepressant-like effects of an effective dose of memantine”.

In the case of CN(C)CCO[C@]1(c2ccccc2)C[C@H]2CC[C@]1(C)C2(C)C [Compound 829, N,N-dimethyl-2-[[(1R,3S,4R)-4,7,7-trimethyl-3-phenyl-3-bicyclo[2.2.1]heptanyl]oxy]ethanamine], the “t(max)” value ([2]; po) is given as 1.0 h, the “AUC (0.96) for H-3 relative to C-14 (times higher)” value [2] is given as 10-15 times and the “concentrations in the hypophysis relative to plasma and brain tissues” value [2] is given as “at least two times higher”. The “entry into brain tissues” value [2] was “intact molecules entered brain tissues from the circulation”, the “ratio of AUC of H-3-labelled compound over C-14” value [2] was 50-60 and the “time of peak characteristic of enterohepatic cycle” value [2] was 12 h. For the same molecule, the “time of peak concentrations after the final treatment” value [2] was 0.5 h and the “CYP2D6-mediated dextromethorphan O-demethylation” value (CYP2D6 [3]) was “observed to inhibit”.

For COc1cccc(CCc2ccccc2OCC(CN(C)C)OC(=O)CCC(=O)O)c1 (racemic) [Compound 50, 4-((1-(dimethylamino)-3-(2-(3-methoxyphenethyl)phenoxy)propan-2-yl)oxy)-4-oxobutanoic acid], the “classification as 2D6 inhibitor” value (2D6) is given as “weak 2D6 inhibitor”, the “increase in the substrate AUC” value (2D6) is given as “less than 2 fold” and the “affinity for 5-HT2A receptors” value (5-HT2A receptors [4]) is given as “the same affinity as ritanserin”. For the same molecule, the Ki (5-HT2A receptors [5]; Ki calculated using the Cheng Prusoff equation) was 5.01 nM, the IC50 (5-HT2A receptors [5]; inhibition of [3H]ketanserin binding, HEK-293 cells expressing human recombinant 5HT2A receptor) was 9.6 nM and the “inhibition type (Dixon plots)” value (CYP2D6 [6]) was “fit well to all competitive inhibition types”. The “frequency of DOI-induced head shakes” value (DOI-induced head shakes) was “reduced”, the “effect of dextromethorphan on blood glucose level” value [7] was “reversed” and the “activity of sham-operated rats” value ([8]; doses with anti-hyperactivity effects) was “do not affect activity of sham-operated rats”. For the same molecule, the “time in ambulations of bulbectomized rats” value ([8]; sarpogrelate 3 or 10 mg/kg i.p., first 15 min of the test) was “spent less time in ambulations”, the IC50 (CYP2D6 [9]) was 1200 nM and the “ANOVA interaction between dose of sarpogrelate and dose of dextromethorphan” value ([10]; PCP 5 mg/kg s.c., 60-120 min, listed as sarpogrelate racemate) was “significant interaction”. For the same molecule, the “activity in PCP-treated rats” value ([10]; given in the absence of dextromethorphan) was “neither sarpogrelate racemate nor sarpogrelate enantiomers reduced activity”, the “motor hyperactivity in PCP-treated rats” value ([10]; in the presence of dextromethorphan, racemate 3 mg/kg, (−) sarpogrelate 1 or 3 mg/kg i.p., PCP 5 mg/kg s.c., 60-120 min) was “inhibited motor hyperactivity in PCP-treated rats” and the half-life [11] was 1.21 ± 0.159 h.
